Data taken from ChEMBL document CHEMBL1201862, “PubChem BioAssay data set” (2004).
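Protocol summary: plate cells (96-well), add compound at 5 concentrations, incubate 48 h, interpolate endpoints linearly. GI50 is the concentration that inhibits growth by half.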 Active and inactive are the calls of the source. No stated cut-off is given here; in the data, active = GI50 up to about 1.1 µM and inactive = higher.

What was measured:
Experiment in all cases: NCI anticancer screen, dose series, 48 h
OVCAR-5 = tested on: OVCAR-5
M14 = tested on: M14
KM-20L2 = tested on: KM-20L2
SNB-19 = tested on: SNB-19
OVCAR-8 = tested on: OVCAR-8
SNB-75 = tested on: SNB-75
NCI-H23 = tested on: NCI-H23
UACC-257 = tested on: UACC-257
TK-10 = tested on: TK-10
LOX IMVI = tested on: LOX IMVI
OVCAR-3 = tested on: OVCAR-3
UACC-62 = tested on: UACC-62
SF-268 = tested on: SF-268
SF-539 = tested on: SF-539
HL-60 = tested on: HL-60
786-0 = tested on: 786-0
KM12 = tested on: KM12

Measured: GI50

Nc1nc2c(N)cc(C(F)(F)F)cc2nc1-c1ccccc1
inactive: OVCAR-5 > 100 µM | M14 > 100 µM | KM-20L2 > 100 µM | SNB-19 > 100 µM | OVCAR-8 > 100 µM | SNB-75 27.2 µM | NCI-H23 > 100 µM | UACC-257 > 100 µM | TK-10 > 100 µM | LOX IMVI > 100 µM | OVCAR-3 > 100 µM | UACC-62 > 100 µM | SF-268 > 100 µM | SF-539 > 100 µM | HL-60 1.17 µM | 786-0 > 100 µM | KM12 > 100 µM

CCc1cccc(C(C)C)c1NC(=O)C(=O)C1C(=O)NC(=O)NC1=O
inactive: OVCAR-5 > 100 µM | M14 > 100 µM | KM-20L2 > 100 µM | SNB-19 > 100 µM | OVCAR-8 > 100 µM | SNB-75 69.5 µM | NCI-H23 > 100 µM | UACC-257 > 100 µM | TK-10 > 100 µM | LOX IMVI > 100 µM | OVCAR-3 > 100 µM | UACC-62 > 100 µM | SF-268 > 100 µM | SF-539 > 100 µM | HL-60 > 100 µM | 786-0 > 100 µM | KM12 > 100 µM

CN1c2ccccc2N(C(=O)c2ccccc2)C(CC(=O)O)c2cccn21 (configuration not stated)
inactive: OVCAR-5 > 100 µM | M14 > 100 µM | KM-20L2 > 100 µM | SNB-19 > 100 µM | OVCAR-8 > 100 µM | SNB-75 > 100 µM | NCI-H23 > 100 µM | UACC-257 > 100 µM | TK-10 > 100 µM | LOX IMVI > 100 µM | OVCAR-3 > 100 µM | UACC-62 55.3 µM | SF-268 > 100 µM | SF-539 > 100 µM | HL-60 > 100 µM | 786-0 > 100 µM | KM12 > 100 µM

c1ccc2c(c1)CCC/C2=N\OCC1CO1 (configuration not stated)
inactive: OVCAR-5 > 100 µM | M14 80.9 µM | KM-20L2 > 100 µM | SNB-19 > 100 µM | OVCAR-8 81.7 µM | SNB-75 > 100 µM | NCI-H23 80 µM | UACC-257 > 100 µM | TK-10 > 100 µM | LOX IMVI 36.3 µM | OVCAR-3 > 100 µM | UACC-62 58.6 µM | SF-268 52.4 µM | SF-539 > 100 µM | HL-60 28.4 µM | 786-0 > 100 µM | KM12 > 100 µM

CCOC(OC1=C(C#N)CCC1)C(C)[Se]c1ccccc1 (configuration not stated)
inactive: OVCAR-5 39.8 µM | M14 16.1 µM | KM-20L2 45.4 µM | SNB-19 48.1 µM | OVCAR-8 18.7 µM | SNB-75 22.3 µM | NCI-H23 12.9 µM | UACC-257 62.8 µM | TK-10 > 100 µM | LOX IMVI 10 µM | OVCAR-3 18.1 µM | UACC-62 18.5 µM | SF-268 19.8 µM | SF-539 21.6 µM | HL-60 21 µM | 786-0 14.4 µM | KM12 92.9 µM

COC(CN1C=C(Sc2ccccc2)CC1)OC
inactive: OVCAR-5 49.2 µM | M14 33.7 µM | KM-20L2 38.8 µM | SNB-19 37.8 µM | OVCAR-8 29.6 µM | SNB-75 19 µM | NCI-H23 23.7 µM | UACC-257 34.8 µM | TK-10 32.7 µM | LOX IMVI 24.8 µM | OVCAR-3 20.2 µM | UACC-62 31.8 µM | SF-268 29.7 µM | SF-539 26.4 µM | HL-60 15.6 µM | 786-0 36.4 µM | KM12 23.8 µM
